# Like-named read-outs stand apart in the source and are kept apart here.
# Assays:
# [1] = molecular target: wild-type PRC2 enzyme (EZH2 WT) (Homo sapiens, UniProt Q15910); assay: PRC2 enzyme assay on peptide substrate, wild-type EZH2
# Description: (§1) S-adenosylmethionine (SAM), S-adenosylhomocyteine (SAH), bicine, KCl, Tween20, dimethylsulfoxide (DMSO) and bovine skin gelatin (BSG) can be purchased from Sigma-Aldrich at the highest level of purity possible. Dithiothreitol (DTT) was purchased from EMD. ^3H-SAM can be purchased from American Radiolabeled Chemicals with a specific activity of 80 C1/mmol. 384-well streptavidin Flashplates can be purchased from PerkinElmer.
# (§2) Recombinant PRC2 Enzymes. Human PRC2 enzymes are purified as 4-component enzyme complexes co-expressed in Spodoptera frugiperda (sf9) cells using a baculovirus expression system. […] The EED subunit contains an N-terminal FLAG tag that is used to purify the entire 4-component complex from sf9 cell lysates. The purity of the complexes meets or exceeds 95% as determined by SDS-PAGE and Agilent Bioanalyzer analysis.
# (§3) General Procedure for PRC2 Enzyme Assays on Peptide Substrates. The assays are all performed in a buffer consisting of 20 mM bicine (pH=7.6), 0.5 mM DTT, 0.005% BSG and 0.002% Tween20, prepared on the day of use. […] DMSO (1 μL) is added to columns 11, 12, 23, 24, rows A-H for the maximum signal control, and SAH, a known product and inhibitor of PRC2 (1 μL) is added to columns 11, 12, 23, 24, rows I-P for the minimum signal control. A cocktail (40 μL) containing the wild-type PRC2 enzyme and H3K27me0 peptide or any of the Y641 mutant enzymes and H3K27me2 peptide is added by Multidrop Combi (Thermo). The compounds are allowed to incubate with PRC2 for 30 min at 25° C., then a cocktail (10 μL) containing a mixture of non-radioactive and ^3H-SAM is added to initiate the reaction (final volume=51 μL). […] The assays are stopped by the addition of non-radioactive SAM (10 μL) to a final concentration of 600 μM, which dilutes the ^3H-SAM to a level where its incorporation into the peptide substrate is no longer detectable. 50 μL of the reaction in the 384-well polypropylene plate is then transferred to a 384-well Flashplate and the biotinylated peptides are allowed to bind to the streptavidin surface for at least 1h before being washed three times with 0.1% Tween20 in a Biotek ELx405 plate washer. The plates are then read in a PerkinElmer TopCount platereader to measure the quantity of ^3H-labeled peptide bound to the Flashplate surface, measured as disintegrations per minute (dpm) or alternatively, referred to as counts per minute (cpm).
# (§4) Where dpm=disintegrations per minute, cmpd=signal in assay well, and min and max are the respective minimum and maximum signal controls.
# (§5) Where top and bottom are the normally allowed to float, but may be fixed at 100 or 0 respectively in a 3-parameter fit. The Hill Coefficient normally allowed to float but may also be fixed at 1 in a 3-parameter fit. Y is the % inhibition and X is the compound concentration.
# [2] = molecular target: Y641 mutant PRC2 enzyme (EZH2 Y641) (Homo sapiens, UniProt Q15910, Y641F); assay: PRC2 enzyme assay on peptide substrate, Y641 mutant EZH2
# Description: as §1, §2, §3, §4, §5
# [3] = EZH2 WT IC50 (μM), wild-type PRC2 enzyme, H3K27me0 peptide substrate
# [4] = EZH2 Y641 IC50 (μM), Y641 mutant EZH2 such as Y641F, H3K27me2 peptide substrate
# Y641 mutant PRC2 enzyme (EZH2 Y641), sequence (Q15910 whole entry Y641F): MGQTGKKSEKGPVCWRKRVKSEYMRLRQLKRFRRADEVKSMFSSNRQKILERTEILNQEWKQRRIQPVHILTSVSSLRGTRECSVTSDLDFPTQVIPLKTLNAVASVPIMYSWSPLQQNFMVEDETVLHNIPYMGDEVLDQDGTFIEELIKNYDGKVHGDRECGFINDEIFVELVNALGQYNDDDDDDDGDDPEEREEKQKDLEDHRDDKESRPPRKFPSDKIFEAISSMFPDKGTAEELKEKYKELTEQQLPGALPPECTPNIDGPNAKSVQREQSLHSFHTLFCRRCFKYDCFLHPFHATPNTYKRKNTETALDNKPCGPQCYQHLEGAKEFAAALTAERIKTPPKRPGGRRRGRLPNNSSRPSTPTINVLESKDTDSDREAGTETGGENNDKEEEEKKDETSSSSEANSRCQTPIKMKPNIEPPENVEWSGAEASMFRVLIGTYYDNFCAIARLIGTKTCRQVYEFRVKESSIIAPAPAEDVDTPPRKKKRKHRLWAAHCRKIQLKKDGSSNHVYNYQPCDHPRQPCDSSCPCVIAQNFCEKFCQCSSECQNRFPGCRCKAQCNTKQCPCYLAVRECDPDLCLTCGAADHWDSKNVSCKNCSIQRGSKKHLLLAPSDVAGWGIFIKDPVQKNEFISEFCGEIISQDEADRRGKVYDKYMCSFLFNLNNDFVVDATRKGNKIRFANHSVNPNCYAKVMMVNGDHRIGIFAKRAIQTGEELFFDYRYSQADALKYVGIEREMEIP
# Y641 mutant PRC2 enzyme (EZH2 Y641), sequence (O75530 whole entry partner): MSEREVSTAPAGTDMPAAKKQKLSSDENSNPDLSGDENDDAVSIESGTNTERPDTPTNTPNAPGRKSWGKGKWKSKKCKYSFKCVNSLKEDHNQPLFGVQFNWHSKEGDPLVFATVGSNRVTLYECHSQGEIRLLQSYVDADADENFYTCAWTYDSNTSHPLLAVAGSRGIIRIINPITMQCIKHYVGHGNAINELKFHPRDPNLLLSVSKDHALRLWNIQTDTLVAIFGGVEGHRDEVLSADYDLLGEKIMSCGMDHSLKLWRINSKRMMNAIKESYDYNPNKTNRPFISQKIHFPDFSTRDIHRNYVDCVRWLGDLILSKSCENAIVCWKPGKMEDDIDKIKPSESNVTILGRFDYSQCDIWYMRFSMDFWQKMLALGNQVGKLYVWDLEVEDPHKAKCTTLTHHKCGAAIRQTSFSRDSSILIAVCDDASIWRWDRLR
# Y641 mutant PRC2 enzyme (EZH2 Y641), sequence (Q15022 whole entry partner): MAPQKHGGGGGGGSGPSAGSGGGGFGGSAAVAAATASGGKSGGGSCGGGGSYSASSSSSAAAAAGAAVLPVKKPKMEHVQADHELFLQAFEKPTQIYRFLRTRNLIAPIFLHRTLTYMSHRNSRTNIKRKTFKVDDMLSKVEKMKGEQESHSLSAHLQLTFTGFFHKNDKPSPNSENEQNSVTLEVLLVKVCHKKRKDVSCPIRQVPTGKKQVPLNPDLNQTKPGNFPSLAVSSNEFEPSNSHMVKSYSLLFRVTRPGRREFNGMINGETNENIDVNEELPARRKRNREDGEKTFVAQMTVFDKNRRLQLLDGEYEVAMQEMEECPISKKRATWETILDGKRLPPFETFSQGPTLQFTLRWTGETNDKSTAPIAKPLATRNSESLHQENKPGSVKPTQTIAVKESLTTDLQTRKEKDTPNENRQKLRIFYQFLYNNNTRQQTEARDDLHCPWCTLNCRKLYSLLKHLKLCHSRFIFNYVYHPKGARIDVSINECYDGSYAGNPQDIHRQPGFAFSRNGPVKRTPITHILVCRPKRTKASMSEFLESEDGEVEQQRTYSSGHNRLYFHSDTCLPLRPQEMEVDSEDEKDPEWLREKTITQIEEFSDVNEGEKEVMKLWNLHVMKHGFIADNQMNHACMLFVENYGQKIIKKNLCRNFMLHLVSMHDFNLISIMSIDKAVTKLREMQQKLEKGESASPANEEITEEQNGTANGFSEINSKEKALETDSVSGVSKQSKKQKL
# Y641 mutant PRC2 enzyme (EZH2 Y641), sequence (Q09028 whole entry partner): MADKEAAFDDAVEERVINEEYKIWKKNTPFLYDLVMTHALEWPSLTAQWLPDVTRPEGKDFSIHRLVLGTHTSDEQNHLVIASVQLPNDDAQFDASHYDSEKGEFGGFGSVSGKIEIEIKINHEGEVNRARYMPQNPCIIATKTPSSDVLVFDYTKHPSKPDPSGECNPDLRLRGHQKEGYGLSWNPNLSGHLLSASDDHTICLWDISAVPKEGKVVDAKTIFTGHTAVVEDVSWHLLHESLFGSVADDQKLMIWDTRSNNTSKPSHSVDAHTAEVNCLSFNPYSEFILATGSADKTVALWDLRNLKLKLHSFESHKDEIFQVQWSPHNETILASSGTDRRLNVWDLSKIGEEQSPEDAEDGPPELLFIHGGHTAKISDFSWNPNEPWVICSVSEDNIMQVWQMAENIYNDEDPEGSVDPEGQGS
# wild-type PRC2 enzyme (EZH2 WT), sequence (Q15910 whole entry): as the sequence (Q15910 whole entry Y641F) above, with F641Y counted along it
# wild-type PRC2 enzyme (EZH2 WT), sequence (O75530 whole entry partner): as the sequence (O75530 whole entry partner) above
# wild-type PRC2 enzyme (EZH2 WT), sequence (Q15022 whole entry partner): as the sequence (Q15022 whole entry partner) above
# wild-type PRC2 enzyme (EZH2 WT), sequence (Q09028 whole entry partner): as the sequence (Q09028 whole entry partner) above
Structure (SMILES),IC50 [1],IC50 [2],"IC50 [1, 3]","IC50 [2, 4]"
"COc1c(CNC(=O)c2ccc(C(C)Oc3ccccc3)c(Cl)c2)c(C)nn1C (stereo not drawn) [compound 2, 3-chloro-N-((5-methoxy-1,3-dimethyl-1H-pyrazol-4-yl)methyl)-4-(1-phenoxyethyl)benzamide]",> 50 µM,> 50 µM,–,–
"Cc1[nH]n(C)c(=O)c1CNC(=O)c1ccc(C(C)Oc2ccccc2)c(Cl)c1 (stereo not drawn) [compound 3, 3-chloro-N-((2,5-dimethyl-3-oxo-2,3-dihydro-1H-pyrazol-4-yl)methyl)-4-(1-phenoxyethyl)benzamide]",> 50 µM,> 50 µM,–,–
"Cc1c(CNC(=O)c2ccc(C(C)Oc3ccccc3)c(Cl)c2)c(=O)[nH]n1C (stereo not drawn) [compound 4, 3-chloro-N-((1,5-dimethyl-3-oxo-2,3-dihydro-1H-pyrazol-4-yl)methyl)-4-(1-phenoxyethyl)benzamide]",> 50 µM,> 50 µM,–,–
"COc1c(CNC(=O)c2ccc(C(C)Oc3ccccc3)cc2C)c(C)nn1C (stereo not drawn) [compound 7, N-((5-methoxy-1,3-dimethyl-1H-pyrazol-4-yl)methyl)-2-methyl-4-(1-phenoxyethyl)benzamide]",> 50 µM,> 50 µM,–,–
"Cc1cc(C(C)Oc2ccccc2)ccc1C(=O)NCc1c(C)n(C)[nH]c1=O (stereo not drawn) [compound 8, N-((1,5-dimethyl-3-oxo-2,3-dihydro-1H-pyrazol-4-yl)methyl)-2-methyl-4-(1-phenoxyethyl)benzamide]",> 50 µM,> 50 µM,–,–
"COc1nn(C)c(C)c1CNC(=O)c1cc(Cl)c(C(C)Oc2ccccc2)cc1C (stereo not drawn) [compound 9, 5-chloro-N-((3-methoxy-1,5-dimethyl-1H-pyrazol-4-yl)methyl)-2-methyl-4-(1-phenoxyethyl)benzamide]",> 50 µM,> 50 µM,–,–
"Cc1cc(C(C)Oc2ccccc2)c(Cl)cc1C(=O)NCc1c(C)n(C)[nH]c1=O (stereo not drawn) [compound 10, 5-chloro-N-((1,5-dimethyl-3-oxo-2,3-dihydro-1H-pyrazol-4-yl)methyl)-2-methyl-4-(1-phenoxyethyl)benzamide]",10 to 50 µM,10 to 50 µM,–,–
"Cc1cc(=O)c(CNC(=O)c2cc(Cl)c(C(C)Oc3ccccc3)cc2C)c(C)[nH]1 (stereo not drawn) [compound 11, 5-chloro-N-((2,6-dimethyl-4-oxo-1,4-dihydropyridin-3-yl)methyl)-2-methyl-4-(1-phenoxyethyl)benzamide]",10 to 50 µM,1 to 10 µM,–,–
"Cc1cc(=O)c(CNC(=O)c2ccc(Oc3cccc(-c4ccnnc4)c3C#N)c(Cl)c2)c(C)[nH]1 [compound 13, 3-chloro-4-(2-cyano-3-(pyridazin-4-yl)phenoxy)-N-((2,6-dimethyl-4-oxo-1,4-dihydropyridin-3-yl)methyl)benzamide]",10 to 50 µM,1 to 10 µM,–,–
"COc1nn(C)c(C)c1CNC(=O)c1ccc(Oc2cccc(-c3ccnnc3)c2C#N)c(Cl)c1 [compound 14, 3-chloro-4-(2-cyano-3-(pyridazin-4-yl)phenoxy)-N-((3-methoxy-1,5-dimethyl-1H-pyrazol-4-yl)methyl)benzamide]",> 50 µM,> 50 µM,–,–
"Cc1c(CNC(=O)c2ccc(Oc3cccc(-c4ccnnc4)c3C#N)c(Cl)c2)c(=O)[nH]n1C [compound 15, 3-chloro-4-(2-cyano-3-(pyridazin-4-yl)phenoxy)-N-((1,5-dimethyl-3-oxo-2,3-dihydro-1H-pyrazol-4-yl)methyl)benzamide]",10 to 50 µM,10 to 50 µM,–,–
"COc1nn(C)c(C)c1CNC(=O)c1cc(Cl)c(Oc2cccc(-c3ccnnc3)c2C#N)cc1C [compound 17, 5-chloro-4-(2-cyano-3-(pyridazin-4-yl)phenoxy)-N-((3-methoxy-1,5-dimethyl-1H-pyrazol-4-yl)methyl)-2-methylbenzamide]",> 50 µM,> 50 µM,–,–
"Cc1cc(Oc2cccc(-c3ccnnc3)c2C#N)c(Cl)cc1C(=O)NCc1c(C)n(C)[nH]c1=O [compound 18, 5-chloro-4-(2-cyano-3-(pyridazin-4-yl)phenoxy)-N-((1,5-dimethyl-3-oxo-2,3-dihydro-1H-pyrazol-4-yl)methyl)-2-methylbenzamide]",1 to 10 µM,1 to 10 µM,–,–
"COc1nn(C)c(C)c1CNC(=O)c1c(C)n(C(C)C2CCOCC2)c2ccccc12 (stereo not drawn) [compound 22, N-((3-methoxy-1,5-dimethyl-1H-pyrazol-4-yl)methyl)-2-methyl-1-(1-(tetrahydro-2H-pyran-4-yl)ethyl)-1H-indole-3-carboxamide]",–,–,> 50 µM,> 50 µM
"Cc1c(CNC(=O)c2c(C)n(C(C)C3CCOCC3)c3ccccc23)c(=O)[nH]n1C (stereo not drawn) [compound 23, N-((1,5-dimethyl-3-oxo-2,3-dihydro-1H-pyrazol-4-yl)methyl)-2-methyl-1-(1-(tetrahydro-2H-pyran-4-yl)ethyl)-1H-indole-3-carboxamide]",–,–,> 50 µM,10 to 50 µM
"CCC(C)n1cc(C)c2c(C(=O)NCc3c(OC)nn(C)c3C)cc(-c3ccc(N4CCNCC4)nc3)cc21 (stereo not drawn) [compound 27, 1-(sec-butyl)-N-((3-methoxy-1,5-dimethyl-1H-pyrazol-4-yl)methyl)-3-methyl-6-(6-(piperazin-1-yl)pyridin-3-yl)-1H-indole-4-carboxamide]",1 to 10 µM,0.1 to 1 µM,–,–
"CCC(C)n1cc(C)c2c(C(=O)NCc3c(C)n(C)[nH]c3=O)cc(-c3ccc(N4CCNCC4)nc3)cc21 (stereo not drawn) [compound 28, 1-(sec-butyl)-N-((1,5-dimethyl-3-oxo-2,3-dihydro-1H-pyrazol-4-yl)methyl)-3-methyl-6-(6-(piperazin-1-yl)pyridin-3-yl)-1H-indole-4-carboxamide]",10 to 50 µM,1 to 10 µM,–,–
"CCC(C)n1cc(C)c2c(C(=O)NCc3c(OC)nn(CC)c3C)cc(-c3ccc(N4CCNCC4)nc3)cc21 (stereo not drawn) [compound 29, 1-(sec-butyl)-N-((1-ethyl-3-methoxy-5-methyl-1H-pyrazol-4-yl)methyl)-3-methyl-6-(6-(piperazin-1-yl)pyridin-3-yl)-1H-indole-4-carboxamide]",1 to 10 µM,1 to 10 µM,–,–
"CCN(c1cc(Cl)cc(C(=O)NC2CC(C)(C)NC(C)(C)C2)c1C)[C@H]1CC[C@H](N(C)C)CC1 [compound 31, 5-chloro-3-(((trans)-4-(dimethylamino)cyclohexyl)(ethyl)amino)-2-methyl-N-(2,2,6,6-tetramethylpiperidin-4-yl)benzamide]",> 50 µM,> 50 µM,–,–
"CCN(c1cc(Cl)cc(C(=O)NC2CC(C)(C)NC(C)(C)C2)c1C)[C@H]1CC[C@H](N(C)CCOC)CC1 [compound 32, 5-chloro-3-(ethyl((trans)-4-((2-methoxyethyl)-(methyl)-amino)-cyclohexyl)amino)-2-methyl-N-(2,2,6,6-tetramethylpiperidin-4-yl)benzamide]",> 50 µM,> 50 µM,–,–
"CCN(c1cc(-c2ccc(OCCOC)cc2)cc(C(=O)NC2CC(C)(C)NC(C)(C)C2)c1C)C1CCOCC1 [compound 34, 5-(ethyl(tetrahydro-2H-pyran-4-yl)amino)-4′-(2-methoxyethoxy)-4-methyl-N-(2,2,6,6-tetramethylpiperidin-4-yl)-[1,1′-biphenyl]-3-carboxamide]",> 50 µM,> 50 µM,–,–

# Source: patent publication US20200361914A1, “SUBSTITUTED BENZENE AND 6,5-FUSED BICYCLIC HETEROARYL COMPOUNDS” (Epizyme, Inc., priority 2014, published 2020)
